In patent publication US9273057B2 (Bristol-Myers Squibb Company, priority 2012, dated 2016):

Biological target: CK2A1 (CK2α/β) (Homo sapiens, UniProt P68400)
Experiment: CK2 kinase assay, CK2A1 (CK2α/β)
Type: biochemical
Settings: Table A; read-out: CK2A1 (CK2α/β) (IC50)

CK2A1 (CK2α/β), sequence (P68400 whole entry, species assumed): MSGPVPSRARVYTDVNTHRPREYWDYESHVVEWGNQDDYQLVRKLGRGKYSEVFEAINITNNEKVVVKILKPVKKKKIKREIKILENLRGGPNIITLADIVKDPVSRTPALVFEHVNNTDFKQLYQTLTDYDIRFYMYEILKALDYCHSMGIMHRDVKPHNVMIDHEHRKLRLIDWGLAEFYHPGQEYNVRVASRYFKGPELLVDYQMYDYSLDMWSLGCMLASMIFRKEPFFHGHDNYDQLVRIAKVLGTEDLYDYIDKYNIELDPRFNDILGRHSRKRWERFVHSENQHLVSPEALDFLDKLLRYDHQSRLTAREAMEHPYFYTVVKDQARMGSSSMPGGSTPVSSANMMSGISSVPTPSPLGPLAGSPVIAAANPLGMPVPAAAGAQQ
CK2A1 (CK2α/β), sequence (P67870 whole entry partner, species assumed): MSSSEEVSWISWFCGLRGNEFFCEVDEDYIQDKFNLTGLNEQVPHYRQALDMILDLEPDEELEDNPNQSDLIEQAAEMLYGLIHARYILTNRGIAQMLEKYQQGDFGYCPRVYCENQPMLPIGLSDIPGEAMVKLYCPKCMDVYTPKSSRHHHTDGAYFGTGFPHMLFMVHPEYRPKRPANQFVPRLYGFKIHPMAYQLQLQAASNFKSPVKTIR

SMILES	IC50 [nM]
CN(CCNC1COC1)c1cc(C#N)cc(Nc2nc(NC3CC3)c3ncc(C#N)n3n2)c1Cl [Example 51, 2-((2-chloro-5-cyano-3-(methyl(2-(3-oxetanylamino)ethyl)amino)phenyl)amino)-4-(cyclopropylamino)imidazo [2,1-f][1,2,4]triazine-7-carbonitrile]	2.47
N#Cc1cc(Nc2nc(NC3CC3)c3ncc(C#N)n3n2)c(Cl)c(N2CCN(CC(F)F)CC2)c1 [Example 52, 2-((2-chloro-5-cyano-3-(4-(2,2-difluoroethyl)-1-piperazinyl)phenyl)amino)-4-(cyclopropylamino)imidazo[2,1-f][1,2,4]triazine-7-carbonitrile]	0.66
COC(=O)N1CC(N2CCN(c3cc(C#N)cc(Nc4nc(NC5CC5)c5ncc(C#N)n5n4)c3Cl)CC2)C1 [Example 53, methyl 3-(4-(2-chloro-5-cyano-3-((7-cyano-4-(cyclopropylamino)imidazo[2,1-f][1,2,4]triazin-2-yl)amino)phenyl)-1-piperazinyl)-1-azetidinecarboxylate]	2.69
COCCN1CCN(c2cc(C#N)cc(Nc3nc(NC4CC4)c4ncc(C#N)n4n3)c2Cl)CC1 [Example 56]	1.14
COCCN1CC(N2CCN(c3cc(C#N)cc(Nc4nc(NC5CC5)c5ncc(C#N)n5n4)c3Cl)CC2)C1 [Example 61, 2-((2-chloro-5-cyano-3-(4-(1-(2-methoxyethyl)-3-azetidinyl)-1-piperazinyl)phenyl)amino)-4-(cyclopropylamino) imidazo[2,1-f][1,2,4] triazine-7-carbonitrile]	0.96
N#Cc1cc(Nc2nc(NC3CC3)c3ncc(C#N)n3n2)c(Cl)c(N2CCN(C3CCC3=O)CC2)c1 (centres unmarked) [Example 62, 2-((2-chloro-5-cyano-3-(4-(2-oxocyclobutyl)piperazin-1-yl)phenyl)amino)-4-(cyclopropylamino) imidazo[2,1-f][1,2,4] triazine-7-carbonitrile]	3.02
COCCN1CCC(N2CCN(c3cc(C#N)cc(Nc4nc(NC5CC5)c5ncc(C#N)n5n4)c3Cl)CC2)CC1 [Example 63, 2-((2-chloro-5-cyano-3-(4-(1-(2-methoxyethyl)-4-piperidinyl)-1-piperazinyl)phenyl)amino)-4-(cyclopropylamino) imidazo[2,1-f][1,2,4] triazine-7-carbonitrile]	0.7
COC(=O)N1CCN(c2cc(C#N)cc(Nc3nc(NC4CC4)c4ncc(C#N)n4n3)c2Cl)CC1 [Example 67, methyl 4-(2-chloro-5-cyano-3-((7-cyano-4-(cyclopropylamino)imidazo[2,1-f] [1,2,4]triazin-2-yl)amino)phenyl)-1-piperazinecarboxylate]	0.48
COCCOC(=O)N1CCN(c2cc(C#N)cc(Nc3nc(NC4CC4)c4ncc(C#N)n4n3)c2Cl)CC1 [Example 68, 2-methoxyethyl 4-(2-chloro-5-cyano-3-((7-cyano-4-(cyclopropylamino)imidazo[2,1-f] [1,2,4]triazin-2-yl)amino)phenyl)-1-piperazinecarboxylate]	0.67
C[C@@H](CN1CCN(c2cc(C#N)cc(Nc3nc(NC4CC4)c4ncc(C#N)n4n3)c2Cl)CC1)NS(C)(=O)=O [Example 69, N-((1S)-2-(4-(2-chloro-5-cyano-3-((7-cyano-4-(cyclopropylamino)imidazo[2,1-f][1,2,4]triazin-2-yl)amino)phenyl)-1-piperazinyl)-1-methylethyl) methanesulfonamide]	0.47
CS(=O)(=O)CCN1CC(N2CCN(c3cc(C#N)cc(Nc4nc(NC5CC5)c5ncc(C#N)n5n4)c3Cl)CC2)C1 [Example 70]	0.54
CNCCOC(=O)N1CCN(c2cc(C#N)cc(Nc3nc(NC4CC4)c4ncc(C#N)n4n3)c2Cl)CC1 [Example 71, 2-(methylamino)ethyl 4-(2-chloro-5-cyano-3-((7-cyano-4-(cyclopropylamino)imidazo[2,1-f] [1,2,4]triazin-2-yl)amino)phenyl)-1-piperazinecarboxylate]	0.76
CN1CC(N2CCN(c3cc(C#N)cc(Nc4nc(NC5CC5)c5ncc(C#N)n5n4)c3Cl)CC2)C1 [Example 72, 2-((2-chloro-5-cyano-3-(4-(1-methyl-3-azetidinyl)-1-piperazinyl)phenyl)amino)-4-(cyclopropylamino) imidazo[2,1-f][1,2,4] triazine-7-carbonitrile]	0.79
CS(=O)(=O)N1CC(N2CCN(c3cc(C#N)cc(Nc4nc(NC5CC5)c5ncc(C#N)n5n4)c3Cl)CC2)C1 [Example 73]	0.74
N#Cc1cc(Nc2nc(NC3CC3)c3ncc(C#N)n3n2)c(Cl)c(N2CCN(C(=O)C3CC3)CC2)c1 [Example 74, 2-((2-chloro-5-cyano-3-(4-(cyclopropylcarbonyl)-1-piperazinyl)phenyl)amino)-4-(cyclopropylamino) imidazo[2,1-f][1,2,4] triazine-7-carbonitrile]	0.55
N#Cc1cc(Nc2nc(NC3CC3)c3ncc(C#N)n3n2)c(Cl)c(N2CCN(C(=O)C(F)F)CC2)c1 [Example 75, 2-(2-chloro-5-cyano-3-(4-(2,2-difluoroacetyl)piperazin-1-yl)phenylamino)-4-(cyclopropylamino) imidazo[1,2-f][1,2,4] triazine-7-carbonitrile]	0.41
CC(=O)NCC(=O)N1CCN(c2cc(C#N)cc(Nc3nc(NC4CC4)c4ncc(C#N)n4n3)c2Cl)CC1 [Example 76, N-(2-(4-(2-chloro-5-cyano-3-((7-cyano-4-(cyclopropylamino)imidazo[2,1-f][1,2,4]triazin-2-yl)amino)phenyl)-1-piperazinyl)-2-oxoethyl)acetamide]	0.75
COCC(=O)N1CCN(c2cc(C#N)cc(Nc3nc(NC4CC4)c4ncc(C#N)n4n3)c2Cl)CC1 [Example 77]	0.69
N#Cc1cc(Nc2nc(NC3CC3)c3ncc(C#N)n3n2)c(Cl)c(N2CCN(C(=O)CO)CC2)c1 [Example 78, 2-(2-chloro-5-cyano-3-(4-(2-hydroxyacetyl)piperazin-1-yl)phenylamino)-4-(cyclopropylamino) imidazo[1,2-f][1,2,4] triazine-7-carbonitrile]	0.41
CC(C)(O)C(=O)N1CCN(c2cc(C#N)cc(Nc3nc(NC4CC4)c4ncc(C#N)n4n3)c2Cl)CC1 [Example 79, 2-((2-chloro-5-cyano-3-(4-(2-hydroxy-2-methylpropanoyl)-1-piperazinyl)phenyl)amino)-4-(cyclopropylamino) imidazo[2,1-f][1,2,4] triazine-7-carbonitrile]	0.53
N#Cc1cc(Nc2nc(NC3CC3)c3ncc(C#N)n3n2)c(Cl)c(N2CCN(C(=O)CCN3CCCCC3)CC2)c1 [Example 82, 2-((2-chloro-5-cyano-3-(4-(3-(1-piperidinyl)propanoyl)-1-piperazinyl)phenyl)amino)-4-(cyclopropylamino) imidazo[2,1-f][1,2,4] triazine-7-carbonitrile]	0.79
CC(=O)N1CCC[C@H]1C(=O)N1CCN(c2cc(C#N)cc(Nc3nc(NC4CC4)c4ncc(C#N)n4n3)c2Cl)CC1 [Example 83, 2-((3-(4-(1-acetyl-L-prolyl)-1-piperazinyl)-2-chloro-5-cyanophenyl)amino)-4-(cyclopropylamino) imidazo[2,1-f][1,2,4] triazine-7-carbonitrile]	0.63
CC(=O)N1CCN(c2cc(C#N)cc(Nc3nc(NC4CC4)c4ncc(C#N)n4n3)c2Cl)CC1 [Example 85, 2-((3-(4-acetyl-1-piperazinyl)-2-chloro-5-cyanophenyl)amino)-4-(cyclopropylamino) imidazo[2,1-fl][1,2,4] triazine-7-carbonitrile]	0.57
